From PubChem BioAssay AID2060513 (Molecular Pharmacology Branch, DTP, NCI, 2025)

Tested on: 299254-011-R-J1-PDC complex spheroids viability
Assay: Anticancer human tumor 299254-011-R-J1-PDC patient-derived melanoma cell line growth inhibition [GQUAD]
Conditions: for IC50: curve of first compound; for viability, T/C: stronger effect = lower value
Method in brief: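 Multi-cell-type spheroids of tumor cells with HUVEC and mesenchymal stem cells, treated with drug combinations. Concentrations descend in half-log steps from near clinical Cmax, or from 10 microM where Cmax is unknown; viability read-out.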

[1] = second compound 0.0316 µM, first compound 0.0316 µM
[2] = second compound 0.0316 µM, first compound 0.316 µM
[3] = second compound 0.1 µM, first compound 0.0316 µM
[4] = second compound 0.1 µM, first compound 0.316 µM
[5] = second compound 0.316 µM, first compound 0.0316 µM
[6] = second compound 0.316 µM, first compound 0.316 µM
[7] = second compound 1 µM, first compound 0.0316 µM
[8] = second compound 1 µM, first compound 0.316 µM
[9] = second compound 3.16 µM, first compound 0.0316 µM
[10] = second compound 3.16 µM, first compound 0.316 µM
[11] = second compound 10 µM, first compound 0.0316 µM
[12] = second compound 10 µM, first compound 0.316 µM
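Also: spheroids exposed to the agents for seven days before readout.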
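For viability, T/C in this document: percent viability relative to DMSO vehicle control wells = 100%.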

CCc1c2c(nc3ccc(O)cc13)-c1cc3c(c(=O)n1C2)COC(=O)[C@]3(O)CC + Cc1[nH]c2ccc(F)cc2c1-c1nc2c3cccnc3c3ncccc3c2[nH]1
IC50 (second compound 0.0316 µM): > 316 nM
IC50 (second compound 0.1 µM): > 316 nM
IC50 (second compound 0.316 µM): > 316 nM
IC50 (second compound 1 µM): > 316 nM
IC50 (second compound 3.16 µM): > 316 nM
IC50 (second compound 10 µM): > 316 nM
viability, T/C (second compound 0.0316 µM, first compound 0.000999 µM): 106%
viability, T/C (second compound 0.0316 µM, first compound 0.00316 µM): 88.8%
viability, T/C (second compound 0.0316 µM, first compound 0.00999 µM): 73.2%
viability, T/C [1]: 73.7%
viability, T/C (second compound 0.0316 µM, first compound 0.0999 µM): 79.6%
viability, T/C [2]: 66.1%
viability, T/C (second compound 0.1 µM, first compound 0.000999 µM): 108%
viability, T/C (second compound 0.1 µM, first compound 0.00316 µM): 117%
viability, T/C (second compound 0.1 µM, first compound 0.00999 µM): 85.4%
viability, T/C [3]: 90.2%
viability, T/C (second compound 0.1 µM, first compound 0.0999 µM): 79.6%
viability, T/C [4]: 64.8%
viability, T/C (second compound 0.316 µM, first compound 0.000999 µM): 91.1%
viability, T/C (second compound 0.316 µM, first compound 0.00316 µM): 117%
viability, T/C (second compound 0.316 µM, first compound 0.00999 µM): 69.2%
viability, T/C [5]: 84.2%
viability, T/C (second compound 0.316 µM, first compound 0.0999 µM): 88.2%
viability, T/C [6]: 70.2%
viability, T/C (second compound 1 µM, first compound 0.000999 µM): 105%
viability, T/C (second compound 1 µM, first compound 0.00316 µM): 92.7%
viability, T/C (second compound 1 µM, first compound 0.00999 µM): 94.2%
viability, T/C [7]: 77.5%
viability, T/C (second compound 1 µM, first compound 0.0999 µM): 84%
viability, T/C [8]: 68.6%
viability, T/C (second compound 3.16 µM, first compound 0.000999 µM): 102%
viability, T/C (second compound 3.16 µM, first compound 0.00316 µM): 114%
viability, T/C (second compound 3.16 µM, first compound 0.00999 µM): 75.7%
viability, T/C [9]: 80.7%
viability, T/C (second compound 3.16 µM, first compound 0.0999 µM): 79.9%
viability, T/C [10]: 72.2%
viability, T/C (second compound 10 µM, first compound 0.000999 µM): 96.1%
viability, T/C (second compound 10 µM, first compound 0.00316 µM): 94.4%
viability, T/C (second compound 10 µM, first compound 0.00999 µM): 80.7%
viability, T/C [11]: 76.8%
viability, T/C (second compound 10 µM, first compound 0.0999 µM): 60.1%
viability, T/C [12]: 58.8%

CC1COCCN1c1cc(-c2ccnn2C)c2ccnc(-c3ccn[nH]3)c2n1 (centres undefined) + CN(C)c1ccc(Nc2c3ccc(NC(=O)CCN4CCCC4)cc3nc3cc(NC(=O)CCN4CCCC4)ccc23)cc1
IC50 (second compound 0.0316 µM): 185 nM
IC50 (second compound 0.1 µM): 189 nM
IC50 (second compound 0.316 µM): 206 nM
IC50 (second compound 1 µM): 202 nM
IC50 (second compound 3.16 µM): 215 nM
IC50 (second compound 10 µM): 215 nM
viability, T/C [1]: 84.5%
viability, T/C (second compound 0.0316 µM, first compound 0.1 µM): 67.2%
viability, T/C [2]: 35%
viability, T/C (second compound 0.0316 µM, first compound 1 µM): 17.3%
viability, T/C (second compound 0.0316 µM, first compound 3.16 µM): 13%
viability, T/C (second compound 0.0316 µM, first compound 10 µM): 11.2%
viability, T/C [3]: 85.5%
viability, T/C (second compound 0.1 µM, first compound 0.1 µM): 74.9%
viability, T/C [4]: 29.6%
viability, T/C (second compound 0.1 µM, first compound 1 µM): 20%
viability, T/C (second compound 0.1 µM, first compound 3.16 µM): 14.2%
viability, T/C (second compound 0.1 µM, first compound 10 µM): 13%
viability, T/C [5]: 91.8%
viability, T/C (second compound 0.316 µM, first compound 0.1 µM): 77.1%
viability, T/C [6]: 33.4%
viability, T/C (second compound 0.316 µM, first compound 1 µM): 19%
viability, T/C (second compound 0.316 µM, first compound 3.16 µM): 15.1%
viability, T/C (second compound 0.316 µM, first compound 10 µM): 11.8%
viability, T/C [7]: 107%
viability, T/C (second compound 1 µM, first compound 0.1 µM): 71.3%
viability, T/C [8]: 36.1%
viability, T/C (second compound 1 µM, first compound 1 µM): 21.2%
viability, T/C (second compound 1 µM, first compound 3.16 µM): 14.9%
viability, T/C (second compound 1 µM, first compound 10 µM): 13.8%
viability, T/C [9]: 102%
viability, T/C (second compound 3.16 µM, first compound 0.1 µM): 73.7%
viability, T/C [10]: 37%
viability, T/C (second compound 3.16 µM, first compound 1 µM): 24.5%
viability, T/C (second compound 3.16 µM, first compound 3.16 µM): 17.9%
viability, T/C (second compound 3.16 µM, first compound 10 µM): 15.7%
viability, T/C [11]: 80.6%
viability, T/C (second compound 10 µM, first compound 0.1 µM): 74.4%
viability, T/C [12]: 37.3%
viability, T/C (second compound 10 µM, first compound 1 µM): 23.6%
viability, T/C (second compound 10 µM, first compound 3.16 µM): 18.8%
viability, T/C (second compound 10 µM, first compound 10 µM): 16.9%
